Test results as given in publication PMC11468294, “Peptide Amphiphiles as Biodegradable Adjuvants for Efficient Retroviral Gene Delivery” (Advanced Healthcare Materials, 2023).
Entries after “also recorded” stand apart in the source; their conditions may differ. Where a SMILES comes first, the peptide text is derived from it. Where no end group is shown, it is not given here. The star is where a group is joined. Palmitoyl = CCCCCCCCCCCCCCCC(=O)*; Nonanoyl = CCCCCCCCC(=O)*

What was measured:
[1] = Microscopic aggregation (fluorescence / confocal microscopy, derived count rate); format: physicochemical; conditions: fibrils preformed at 1 mg mL-1 in PBS; ThT or Proteostat stain, widefield or confocal microscopy; derived count rate > 1000 kcps as criterion
Procedure: Transmission electron microscopy (TEM) measurements, Thioflavin (ThT), zeta‐potential measurements for fibril characterization, ATR‐IR spectra acquisition and the calculation of β−sheet were prepared and conducted analogous to a previous report.^[ [20], [86] ^] […] Fibrils were defined as distinct, if no visible structures could be identified in fluorescence and brightfield microscopy. […] The derived count rate of the zeta‐potential measurement was used as information on the light scattering intensity and turbidity of the sample as a further indicator for microscopic aggregation.^[ [90] ^]
Fluorescence microscopy: 1 µL Fibrils (1 mg mL^−1) were stained with 9 µL, 50 µM ThT. 10 µL of the stained fibrils (0.1 mg mL^−1) were placed on a microscopy glass. Fluorescence microscopy measurements were performed on a Leica DMi8 microscope with 10x air objective and equipped with a Leica MC170 HD camera with a filter setting λem = 527/30 nm upon excitation at λex = 480/40 nm) and processed with the Leica LASX software.
(§1) 7 Effects of PA modifications on properties and activity
(§2) To investigate the effects of modification in the PA sequence, we created various peptide amphiphiles derived from PA1 by varying the (I) hydrophobic moiety, (II) the linkage chemistry and (III) the peptide sequence (Figure S12, SI chapter 7.1 – 7.3). The color code for sequence representation is yellow for the hydrophobic moiety, blue for cationic amino acids, red for non-polar amino acids, purple for polar uncharged amino acids, and green for anionic amino acids. To be concise, only the summarized information will be discussed, all original data for the peptides are summarized in the (Figure S26 - […]
(§3) Figure S12 Summarized overview of peptide amphiphile library in which systematic variations the original sequence […]
(§4) chemistry and (III) the peptide sequence on infectivity enhancement and degradability (see SI chapter 7.1 – 7.3).
(§5) In the following section a compound is considered infectivity enhancing if n-fold infectivity at 1.3 µM is larger than 2. A compound is considered to form µm-sized aggregates if visible particles were observed in widefield microscopy (brightfield or ThT-staining filter, objective 10x) or confocal […]
(§6) than 1000 kcps in Zeta-Potential measurements.
(§7) For the degradability only the PAs which could be stained with Proteostat (Figure S26) and were visible in microscopy (Figure S15, Figure S18, Figure S21, and Figure S22) were studied in detail. To determine […]
whether a PA is degraded or not, Proteostat stained PAs which are added to Hela cells (2 µg peptide added to 20.000 cells) and studied via confocal laser scanning microscopy. […]
In the following, we will distinguish between three aggregation types for fibrillar structures: Fibrils which were not aggregating (below resolution limit of the microscope, approx. 650 nm), moderately aggregating (< 50 µm2) and aggregating to large particles (> 50 µm 2).
7.1 Effects of hydrophobic moiety exchange on properties and activity
To investigate the effects of varying hydrophobic moieties on assembly, aggregation and activity , we

[2] = test system: HIV-1 infection of TZM-bl cells; assay: HIV-1 infection assay (β-galactosidase luminescence reporter); format: cell-based; conditions: infectivity enhancing if n-fold at 1.3 µM larger than 2
Procedure: HIV‐1 Infection Assay: The effect of peptide fibrils on HIV‐1 infection was studied via a luminescence assay for β‐galactosidase, which was reported by TZM‐bl cells upon infection. 10000 TZM‐bl cells were seeded in 180 µl supplemented DMEM one day prior infection. The cells were inoculated with 20 µl PNF solution 1:1 (v/v) mixed with virus (1:500 dilution) after an incubation time of 10 min. The HIV‐1 infection assay was conducted in three technical replicates and repeated in three independent experiments unless stated otherwise. The assay was conducted as described before.^[ [20] ^]

HeLa cells = format: in vitro ADME; conditions: HeLa cells; for degradability by cells (in words): 2 µg peptide added to 20,000 cells, d0 (30 min) vs d3, degradable if number and size of aggregates are reduced after 3 days; for degradability (percentual degradation by aggregate number): 2 µg peptide (10 µg mL-1) added to 20,000 cells, 37°C, aggregates > 10 µm2 in 1008 µm × 1008 µm at d3 (72 h) vs d0 (30 min), Proteostat, confocal, three technical replicates
Procedure: Confocal laser scanning microscopy and degradation study with PA library and HeLa cells: Confocal laser scanning microscopy studies were performed for the visualization of the cell‐PA interaction. HeLa cells were seeded one day prior to conducting the assay (20000/well) in an 8‐well IBIDI slide. 2 µL of the preformed peptide fibrils (1 mg mL^−1) were diluted with 2 µL Proteostat (Enzo Life Science, 1 µL stock in 99 µL PBS) and incubated for 10 min and further diluted with medium to receive a final peptide concentration of 10 µg mL^−1. The nucleus of the HeLa cells was stained with Hoechst 33 342 (NucBlue, Thermo Fisher Scientific). The peptide solution mixture was transferred to the HeLa cells and incubated for 30 min at 37°C before washing three times with PBS. The interaction of fibril clusters with cells was monitored after 30 min incubation time on a Stellaris 8 confocal laser scanning microscope (Leica) equipped with a 20x air objective and laser excitation wavelengths of 405 nm (Hoechst), and 561 nm (Proteostat). For the evaluation of aggregate degradation, the samples were further incubated at 37°C for 3 d and analyzed without any additional washing step. The evaluation of aggregate size and number was conducted by analyzing Proteostat stained aggregates via the 3D objects counter function of ImageJ 1.53f51 for 3 individual measurements (area 1008 µm × 1008 µm). […] The number of aggregates were determined by counting aggregates larger than the threshold 10 µm^2 in an area of 1008 µm × 1008 µm and repeated in three technical triplicates.
as §1, §2, §3, §4, §5, §6, §7
whether a PA is degraded or not, Proteostat stained PAs which are added to Hela cells (2 µg peptide added to 20.000 cells) and studied via confocal laser scanning microscopy. Microscopy is conducted at day 0 (d0, after 30 min of incubation) and at day 3 (d3, after 72 h of incubation). The number of aggregates >10 µm2 is counted via 3D object counter in ImageJ in an area of 1008 µm × 1008 µm.
A PA is considered as degradable if the number and the size of aggregates are reduced after 3 days.
The efficiency is determined by the percentual degradation (aggregate number at d3 / aggregate number at d0). Three technical replicates were evaluated for each sample. A large deviation in number and size of aggregates represents a nonhomogeneous distribution and polymorphism of aggregates.

Molecule | formation of µm-sized aggregates (in words) [1] | infectivity enhancement of HIV-1 (in words) [2] | degradability by cells (in words) (HeLa cells) | degradability (percentual degradation by aggregate number) (HeLa cells) [%]
CCCCCCCCCCCCCCCC(=O)N[C@@H](C)C(=O)N[C@H](C(=O)N[C@@H](C)C(=O)N[C@@H](CCCCN)C(=O)N[C@@H](CCCCN)C(=O)N[C@@H](CCCCN)C(N)=O)C(C)C [C16-AVAKKK-NH2] (Palmitoyl-AVAKKK-NH2) | not forming µm-sized aggregates and forming too few/less aggregates, respectively | – | – | –
CCCCCCCCCCCCCCCC(=O)N[C@@H](CCCNC(=N)N)C(=O)N[C@@H](CCCNC(=N)N)C(=O)N[C@@H](Cc1c[nH]c2ccccc12)C(=O)N[C@@H](CCC(N)=O)C(=O)N[C@@H](Cc1c[nH]c2ccccc12)C(=O)N[C@@H](CCCNC(=N)N)C(N)=O [C16-RRWQWR-NH2] (Palmitoyl-RRWQWR-NH2) | not forming µm-sized aggregates and forming too few/less aggregates, respectively; also recorded: cannot form µm‐sized aggregates | Inactive | – | –
CCCCCCCCCCCCCCCC(=O)N[C@@H](CCCCN)C(=O)N[C@H](C(=O)N[C@H](C(=O)N[C@@H](CO)C(=O)N[C@@H](Cc1ccccc1)C(=O)N[C@@H](CCCCN)C(N)=O)[C@@H](C)CC)[C@@H](C)CC [C16-KIISFK-NH2] (Palmitoyl-KIISFK-NH2) | very large aggregates | – | degraded incompletely | –
C16-AQAKAK [library peptide amphiphile, palmitic acid at the N-terminus] | very large aggregates | – | degraded incompletely | –
CCCCCCCCC(=O)N[C@H](C(=O)N[C@H](C(=O)N[C@H](C(=O)N[C@@H](C)C(=O)N[C@@H](C)C(=O)N[C@@H](C)C(=O)N[C@@H](CCCCN)C(=O)N[C@@H](CCCCN)C(=O)N[C@@H](CCCCN)C(N)=O)C(C)C)C(C)C)C(C)C [C9] (Nonanoyl-VVVAAAKKK-NH2) | – | – | reduced in number of aggregates, but increases in size | –
CCCCCCCCCCCCCCCC(=O)N[C@@H](C)C(=O)NCC(=O)N[C@@H](C)C(=O)NCC(=O)N[C@@H](CCCNC(=N)N)C(=O)N[C@@H](CCCNC(=N)N)C(=O)N[C@@H](CCCNC(=N)N)C(N)=O [C16-AGAGRRR-NH2] (Palmitoyl-AGAGRRR-NH2) | not forming µm-sized aggregates and forming too few/less aggregates, respectively; also recorded: cannot form µm‐sized aggregates | Inactive | – | –
CCCCCCCCCCCCCCCC(=O)OC[C@H](N)C(=O)N[C@H](C(=O)N[C@H](C(=O)N[C@H](C(=O)N[C@@H](C)C(=O)N[C@@H](C)C(=O)N[C@@H](C)C(=O)N[C@@H](CCCCN)C(=O)N[C@@H](CCCCN)C(=O)N[C@@H](CCCCN)C(N)=O)C(C)C)C(C)C)C(C)C (H-S(Palmitoyl)VVVAAAKKK-NH2) | – | – | degraded well | –
CCCCCCCCCCCCCCCC(=O)N[C@H](C(=O)N[C@H](C(=O)N[C@@H](C)C(=O)N[C@@H](C)C(=O)N[C@@H](Cc1c[nH]cn1)C(=O)N[C@@H](Cc1c[nH]cn1)C(=O)N[C@@H](Cc1c[nH]cn1)C(N)=O)C(C)C)C(C)C [C16-VVAAHHH-NH2] (Palmitoyl-VVAAHHH-NH2) | very large aggregates | – | increase in size, decrease in number | –
CCCCCCCCCCCCCCCC(=O)N[C@@H](C)C(=O)N[C@@H](C)C(=O)N[C@H](C(=O)N[C@H](C(=O)N[C@@H](Cc1c[nH]cn1)C(=O)N[C@@H](Cc1c[nH]cn1)C(=O)N[C@@H](CCCCN)C(N)=O)C(C)C)C(C)C [C16-AAVVHHK-NH2] (Palmitoyl-AAVVHHK-NH2) | very large aggregates | – | degraded incompletely | –
CCCCCCCCCCCCCCCC(=O)N[C@@H](C)C(=O)N[C@@H](CC(C)C)C(=O)N[C@@H](C)C(=O)N[C@@H](C)C(=O)NCC(=O)N[C@@H](CCCCN)C(=O)N[C@@H](CCCCN)C(N)=O [C16-ALAAGKK-NH2] (Palmitoyl-ALAAGKK-NH2) | – | – | – | 87
NFYLQVNKINK-NH2 | – | – | no good degradability | –
CCCCCCCCCCCCCCCC(=O)N[C@@H](C)C(=O)N[C@@H](CCCCN)C(=O)N[C@@H](C)C(=O)N[C@H](C(=O)NCC(=O)N[C@@H](CCCCN)C(N)=O)C(C)C [C16-AKAVGK-NH2] (Palmitoyl-AKAVGK-NH2) | – | – | – | 89
CCCCCCCCCCCCCCCC(=O)N[C@@H](CCCCN)C(=O)N[C@@H](Cc1ccc(O)cc1)C(=O)N[C@H](C(=O)N[C@@H](Cc1c[nH]cn1)C(=O)N[C@@H](CCC(N)=O)C(=O)N[C@@H](CC(N)=O)C(=O)N[C@@H](Cc1ccc(O)cc1)C(=O)N[C@H](C(=O)N[C@@H](CCCCN)C(=O)N[C@@H](C)C(=O)N[C@@H](CC(C)C)C(=O)N[C@@H](C)C(=O)NCC(=O)N[C@@H](CCCCN)C(=O)N[C@@H](CC(C)C)C(=O)N[C@H](C(N)=O)C(C)C)[C@@H](C)O)[C@@H](C)CC (Palmitoyl-KYIHQNYTKALAGKLV-NH2) | very large aggregates | – | degraded incompletely | –
CCCCCCCCCCCCCCCC(=O)N[C@@H](CC(C)C)C(=O)N[C@@H](CC(N)=O)C(=O)NCC(=O)NCC(=O)N[C@H](C(=O)N[C@@H](CCCCN)C(=O)N[C@@H](CCCCN)C(N)=O)C(C)C [C16-LNGGVKK-NH2] (Palmitoyl-LNGGVKK-NH2) | – | – | – | 48
CCCCCCCCCCCCCCCC(=O)N[C@@H](CC(N)=O)C(=O)N[C@@H](Cc1ccccc1)C(=O)N[C@@H](Cc1ccc(O)cc1)C(=O)N[C@@H](CC(C)C)C(=O)N[C@@H](CCC(N)=O)C(=O)N[C@H](C(=O)N[C@@H](CC(N)=O)C(=O)N[C@@H](CCCCN)C(=O)N[C@H](C(=O)N[C@@H](CC(N)=O)C(=O)N[C@@H](CCCCN)C(N)=O)[C@@H](C)CC)C(C)C (Palmitoyl-NFYLQVNKINK-NH2) | very large aggregates | – | degraded incompletely | –
C16‐thioester‐CVVVAAAKKK‐NH2 [PA1 variant with thioester linker] | small, well distributed aggregates | – | – | 87
